ChEMBL document CHEMBL5678811 (Invest New Drugs, 2014)
The source made the active and inactive calls. The rule behind the calls is not given here.

What was measured:
Calu-6 [1] = test: Antitumor activity against human Calu-6 cells xenografted in CD1 nu/nu mouse assessed as tumor growth inhibition at 60 mg/kg, […] q3d administered via gavage for 7 days measured twice per week during compound dosing; format: functional, organism-based; conditions: time 7.0 day
Calu-6 [2] = test: Antitumor activity against human Calu-6 cells xenografted in CD1 nu/nu mouse assessed as tumor growth inhibition at 150 mg/kg, […] q3d administered via gavage for 4 days measured twice per week during compound dosing; format: functional, organism-based; conditions: time 4.0 day

`Nc1ccn([C@@H]2O[C@H](CO)[C@@H](O)C2(F)F)c(=O)n1` was tested, and the TGI (Calu-6 [1]) was “Active” and the TGI (Calu-6 [2]) was “Active”.
